Results as given in patent US5281628A, “9-amino-7-(substituted)-6-demethyl-6-deoxytetracyclines” (American Cyanamid Company, priority 1991, dated 1994).
Structures can show the parent of a compound that is named as a salt.

Legend:
[1] = test system: E. coli S30 Ribosomes, Wild Type (tetracycline sensitive); assay: In vitro protein translation with E. coli S30 ribosomes, wild type; format: biochemical
Experimental: (§1) The E. coli in vitro translation system can be used to study not only the mechanism of protein translation itself, but also the effect that various compounds may have on protein synthesis. The system can be set up to function as a coupled transcription and translation system or as a translation only system depending on whether DNA or RNA is added to initiate protein synthesis. In this way, compounds affecting either RNA synthesis and/or protein synthesis can be studied. Protein synthesis is monitored by the incorporation of radiolabeled amino acids into trichloroacetic acid precipitable material. The system used is based upon literature methods [G. Zubay, Ann. Rev. Genet., 7: 267-287(1973) and J. Collins, Gene, 6: 28-42 (1979)].
(§2) The system used to study tetracycline protein synthesis inhibition is as follows:
(§3) An S30 extract (supernatant from a 30,000×G centrifugation of lysed cells) of either tetracycline sensitive or tetracycline resistant (tetM+) cells is combined with a mixture of low molecular weight compounds required for protein synthesis which include a mixture of 19 amino acids, methionine, ^35 S-methionine, plasmid template DNA and either dimethylsulfoxide (DMSO) or the tetracycline to be tested dissolved and diluted in DMSO. This mixture is incubated at 37° C. for 30 minutes. Following the incubation, 2.5 μl of the 10 μl reaction is removed and added to 0.5 ml of 1N sodium hydroxide. The solution is incubated an additional 15 minutes at 37° C., to destroy any m-RNA and t-RNA. The incorporation of ^35 S-methionine is determined by precipitating the high molecular weight material in the sodium hydroxide aliquot with trichloroacetic acid (TCA), collecting the precipitated material on Whatman G/FC filters, drying the filters and counting the radioactivity retained on the filter. Percent inhibition (P.I.) of protein synthesis is determined by the following equation: [formula]

[2] = test system: E. coli S30 Ribosomes, tetM Variant (tetM protected ribosomes); assay: In vitro protein translation with E. coli S30 ribosomes, tetM variant; format: biochemical
Experimental: as §1, §2, §3

[3] = test system: tetracycline sensitive and resistant Gram-positive and Gram-negative bacteria; assay: In vitro antibacterial evaluation, statements on the whole panel; format: cell-based
Experimental: The minimum inhibitory concentration (MIC), the lowest concentration of the antibiotic which inhibits growth of the test organism, is determined by the microtiter broth dilution method using 0.1 ml Muller-Hinton II broth (Baltimore Biological Laboratories) per well. A suitable oxygen scavenger (i.e., cysteine or dithiothreitol) is added to the assay medium for the testing of compounds according to Formula I because of the sensitivity of those compounds to oxidation. An inoculum level of 1-5×10^5 CFU/ml and a range of antibiotic concentrations (32 0.004 μg/ml) are used.

[4] = test system: S. aureus and E. coli; assay: Acute lethal infections in mice, statements over several strains; format: in vivo; conditions: S. aureus and E. coli carrying tetM
Experimental: The therapeutic effects of tetracyclines are determined against acute lethal infections with various staphylococcal and E. coli strains. Female mice, strain CD-1 Charles River Laboratories, (20±2 grams) are challenged by an intraperitoneal injection of sufficient bacteria (suspended in broth or hog gastric mucin) to kill non-treated controls within 24-48 hours. Antibacterial agents, contained in 0.5 ml of 0.2% aqueous agar, are administered subcutaneously or orally 30 minutes after infection. When an oral dosing schedule is used, animals are deprived of food for 5 hours before and 2 hours after infection. Five mice are treated at each dose level. The 7 day survival ratios from three separate tests are pooled for calculation of median effective dose (ED50).

[5] = Wild Type S30 no DTT, 1.0 mg/ml
[6] = Wild Type S30 no DTT, 1:2 Dilution
[7] = Wild Type S30 no DTT, 1:4 Dilution
[8] = Wild Type S30 no DTT, 1:8 Dilution
[9] = Wild Type S30 no DTT, 1:16 Dilution
[10] = Wild Type S30 no DTT, 1:32 Dilution
[11] = Wild Type S30 no DTT, 1:64 Dilution
[12] = Wild Type S30 with DTT, 1.0 mg/ml
[13] = Wild Type S30 with DTT, 1:2 Dilution
[14] = Wild Type S30 with DTT, 1:4 Dilution
[15] = Wild Type S30 with DTT, 1:8 Dilution
[16] = Wild Type S30 with DTT, 1:16 Dilution
[17] = Wild Type S30 with DTT, 1:32 Dilution
[18] = Wild Type S30 with DTT, 1:64 Dilution
[19] = coupled transcription and translation system
[20] = tetM S30 with DTT, 1:2 Dilution
[21] = tetM S30 with DTT, 1:4 Dilution
[22] = tetM S30 with DTT, 1:8 Dilution
[23] = tetM S30 with DTT, 1:16 Dilution
[24] = tetM S30 with DTT, 1:32 Dilution
[25] = tetM S30 with DTT, 1:64 Dilution

CN(C)c1cc(N)c(O)c2c1C[C@H]1C[C@H]3[C@H](N(C)C)C(O)=C(C(N)=O)C(=O)[C@@]3(O)C(O)=C1C2=O [A, 9-Amino-7-(dimethylamino)-6-demethyl-6-deoxytetracycline hydrochloride]
% Inhibition [1, 5]: 88%
Counts [1, 5]: 52595
% Inhibition [1, 6]: 82%
Counts [1, 6]: 80494
% Inhibition [1, 7]: 79%
Counts [1, 7]: 95015
% Inhibition [1, 8]: 72%
Counts [1, 8]: 130209
% Inhibition [1, 9]: 55%
Counts [1, 9]: 205392
% Inhibition [1, 10]: 35%
Counts [1, 10]: 297786
% Inhibition [1, 11]: 46%
Counts [1, 11]: 245494
% Inhibition [1, 12]: 96%
Counts [1, 12]: 38121
% Inhibition [1, 13]: 93%
Counts [1, 13]: 60891
% Inhibition [1, 14]: 89%
Counts [1, 14]: 92203
% Inhibition [1, 15]: 84%
Counts [1, 15]: 143215
% Inhibition [1, 16]: 75%
Counts [1, 16]: 214831
% Inhibition [1, 17]: 73%
Counts [1, 17]: 238321
% Inhibition [1, 18]: 56%
Counts [1, 18]: 380103
inhibition of protein synthesis on wild type ribosomes (in words) [1, 19]: effectively inhibit protein synthesis
inhibition of protein synthesis on tetM protected ribosomes (in words) [2, 19]: effective in inhibiting protein synthesis
% Inhibition ([2]; tetM S30 no DTT, 1.0 mg/ml): 48%
Counts ([2]; tetM S30 no DTT, 1.0 mg/ml): 129780
% Inhibition ([2]; tetM S30 no DTT, 1:2 Dilution): 36%
Counts ([2]; tetM S30 no DTT, 1:2 Dilution): 158861
% Inhibition ([2]; tetM S30 no DTT, 1:4 Dilution): 18%
Counts ([2]; tetM S30 no DTT, 1:4 Dilution): 203184
% Inhibition ([2]; tetM S30 no DTT, 1:8 Dilution): 7%
Counts ([2]; tetM S30 no DTT, 1:8 Dilution): 231447
% Inhibition ([2]; tetM S30 no DTT, 1:16 Dilution): 0%
Counts ([2]; tetM S30 no DTT, 1:16 Dilution): 305633
% Inhibition ([2]; tetM S30 no DTT, 1:32 Dilution): 0%
Counts ([2]; tetM S30 no DTT, 1:32 Dilution): 349994
% Inhibition ([2]; tetM S30 no DTT, 1:64 Dilution): 0%
Counts ([2]; tetM S30 no DTT, 1:64 Dilution): 310723
% Inhibition ([2]; tetM S30 with DTT, 1.0 mg/ml): 68%
Counts ([2]; tetM S30 with DTT, 1.0 mg/ml): 145068
% Inhibition [2, 20]: 62%
Counts [2, 20]: 168574
% Inhibition [2, 21]: 49%
Counts [2, 21]: 226708
% Inhibition [2, 22]: 36%
Counts [2, 22]: 284606
% Inhibition [2, 23]: 16%
Counts [2, 23]: 375989
% Inhibition [2, 24]: 8%
Counts [2, 24]: 412967
% Inhibition [2, 25]: 0%
Counts [2, 25]: 507461
in vitro activity against tetracycline resistant strains carrying the tetM resistance determinant ([3]; S. aureus UBMS 88-5, 90-1 and 90-2, E. coli UBMS 89-1 and 90-4): good in vitro activity
effectiveness vs. susceptible strains compared with B ([3]; susceptible strains, comparator B): equally as effective
ED50 compared with B, strains which carry the tetM resistance determinant [4]: Lowered ED50 's
